Common to all, as to assay type: biochemical
Assay [1] has as its target T1, TAK1A-TAB fusion protein (Homo sapiens, UniProt O43318).
T1 construct: using 20 nM TAK1A-TAB fusion protein
T1 sequence (O43318 with tags, fused parts or gaps isoform O43318-2 limits assumed): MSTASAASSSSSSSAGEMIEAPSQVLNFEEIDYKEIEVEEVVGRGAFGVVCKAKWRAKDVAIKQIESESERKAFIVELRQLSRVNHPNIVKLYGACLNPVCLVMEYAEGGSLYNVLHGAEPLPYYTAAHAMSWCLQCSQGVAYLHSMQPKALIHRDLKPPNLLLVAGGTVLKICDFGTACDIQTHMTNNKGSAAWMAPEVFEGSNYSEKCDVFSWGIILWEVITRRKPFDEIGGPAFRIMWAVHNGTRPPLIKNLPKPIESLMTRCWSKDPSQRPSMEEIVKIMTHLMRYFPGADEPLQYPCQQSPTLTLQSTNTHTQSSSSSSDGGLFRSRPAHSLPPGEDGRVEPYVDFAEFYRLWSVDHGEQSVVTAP
Briefly: TAK-1 inhibition assay, radiometric filter binding assay. As to conditions: 50 μM ATP, 12 μM bovine myelin basic protein, 20 nM TAK1A-TAB fusion protein. The gist of the method: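 Radiometric filter-binding assay with 20 nM TAK1A-TAB fusion, 50 μM [33P]ATP and 12 μM bovine MBP in pH 7.5 HEPES/MgCl2, NaCl, DTT, 1.5% DMSO. Compounds titrated 0.046–3.73 μM (6 points); 2 h at ~20 °C, TCA quench, filtered counts. Ki derived from rate versus inhibitor concentration.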

Assay [2] addresses T2, Aurora-2 (Homo sapiens, UniProt O14965).
T2 construct: addition of 10 μL of Aurora-2 stock solution to give a final concentration of 70 nM
T2 sequence (O14965 1-403): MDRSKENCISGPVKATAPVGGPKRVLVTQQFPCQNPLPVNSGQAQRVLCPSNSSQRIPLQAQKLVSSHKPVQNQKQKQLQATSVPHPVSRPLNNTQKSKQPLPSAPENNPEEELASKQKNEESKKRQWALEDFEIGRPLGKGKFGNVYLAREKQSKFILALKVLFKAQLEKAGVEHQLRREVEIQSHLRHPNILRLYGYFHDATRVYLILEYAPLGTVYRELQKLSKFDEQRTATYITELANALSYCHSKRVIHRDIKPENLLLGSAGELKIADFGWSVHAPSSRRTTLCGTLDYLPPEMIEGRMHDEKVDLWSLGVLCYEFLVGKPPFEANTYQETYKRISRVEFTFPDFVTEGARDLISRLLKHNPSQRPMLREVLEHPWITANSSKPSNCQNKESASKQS
Briefly: Inhibition of AUR-2, coupled enzyme assay. As to conditions: 70 nM Aurora-2, 800 μM peptide LRRASLG, 30° C. As to the method:
Compounds are screened in the following manner for their ability to inhibit Aurora-2 using a standard coupled enzyme assay (Fox et al. (1998) Protein Sci 7, 2249). To an assay stock buffer solution containing 0.1M HEPES 7.5, 10 mM MgCl2, 1 mM DTT, 25 mM NaCl, 2.5 mM phosphoenolpyruvate, […], […], […], and 800 μM peptide (LRRASLG, American Peptide, Sunnyvale, Calif.) is added a DMSO solution of a compound of the present invention to a final concentration of 30 μM. The resulting mixture is incubated at 30° C. for 10 min. The reaction was initiated by the addition of 10 μL of Aurora-2 stock solution to give a final concentration of 70 nM in the assay. The rates of reaction are obtained by monitoring absorbance at 340 nm over a 5 minute read time at 30° C. using a BioRad Ultramark plate reader (Hercules, Calif.). The Ki values are determined from the rate data as a function of inhibitor concentration.

The target in assay [3] is SYK (Homo sapiens, UniProt P43405). Nature of the assay: SYK enzyme assay, coupled enzyme assay. The settings on record: 200 μM ATP, 4 μM poly Gly-Tyr peptide, 30° C. The gist of the method: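 Pyruvate kinase/lactate dehydrogenase-coupled NADH assay in HEPES pH 7.5 with MgCl2, NaCl, DTT and 1.5% DMSO, using 200 μM ATP, 4 μM poly Gly-Tyr and 25 nM enzyme. Compound at 30 μM final was preincubated ~10 min at 30 °C. Rates were read over 5 min at 30 °C and Ki derived.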

Structures are written as SMILES.

The Ki is the dissociation constant of the complex between target and ligand, obtained from inhibition or displacement. Read a high Ki as lower affinity.

As to `Cc1cnc2[nH]cc(-c3oncc3-c3cccc(F)c3F)c2c1` [Compound 46, 3-[4-(2,3-Difluoro-phenyl)-isoxazol-5-yl]-5-methyl-1H-pyrrolo[2,3-b]pyridine], the Ki fell in the range of 1000 to 12500 nM in assay [1] and 200 to 1000 nM in assay [2].

Turning to `Fc1cccc(-n2cnnc2-c2c[nH]c3ncc(-c4ccc(N5CCNCC5)nc4)cc23)c1F` [Compound 111, 3-[4-(2,3-Difluoro-phenyl)-4H-[1,2,4]triazol-3-yl]-5-(6-piperazin-1-yl-pyridin-3-yl)-1H-pyrrolo[2,3-b]pyridine], the Ki in assay [1] fell in the range of 1000 to 12500 nM.

For `CN(C)C1CCC(c2cnc3[nH]cc(-c4oncc4-c4cccc(F)c4F)c3c2)CC1` (stereo not drawn) [Compound 141, (4-{3-[4-(2,3-Difluoro-phenyl)-isoxazol-5-yl]-1H-pyrrolo[2,3-b]pyridin-5-yl}-cyclohexyl)-dimethylamine], the Ki in assay [1] was 200 to 1000 nM.

Take `Fc1ccc(F)c(-c2cnoc2-c2c[nH]c3ncccc23)c1F` [Compound 41, 3-[4-(2,3,6-Trifluoro-phenyl)-isoxazol-5-yl]-1H-pyrrolo [2,3-b]pyridine]: in assay [3], the Ki fell in the range of 1000 to 12500 nM.

Turning to `NC(=O)c1ccc(-c2cnc3[nH]cc(-c4oncc4-c4cccc(F)c4F)c3c2)cc1` [Compound 153], in assay [2], the inhibition constant Ki is below 200 nM.

For `Fc1cccc(-c2cnoc2-c2c[nH]c3ncc(Cl)cc23)c1F` [Compound 44, 3-[4-(2,3-Difluoro-phenyl)-isoxazol-5-yl]-5-chloro-1H-pyrrolo[2,3-b]pyridine], the inhibition constant (Ki) in assay [3] was 1000 to 12500 nM; in assay [2], below 200 nM.

Consider `c1ccc(-c2cnoc2-c2c[nH]c3ncccc23)cc1` [Compound 35, 3-[4-Phenyl-isoxazol-5-yl]-1H-pyrrolo[2,3-b]pyridine], for which the Ki in assay [3] is 1000 to 12500 nM.

Consider `C[N+]1(C)CCN(c2ccc(-c3cnc4[nH]cc(-c5oncc5-c5cccc(F)c5F)c4c3)cc2)CC1` [Compound 155], for which the Ki was 200 to 1000 nM in assay [3] and below 200 nM in assay [1].

In assay [1], `CN1CCN(C(=O)[C@H]2C[C@@H]2c2cnc3[nH]cc(-c4oncc4-c4cccc(F)c4F)c3c2)CC1` (relative stereo) [Compound 142, trans-(2-{3-[4-(2,3-Difluoro-phenyl)-isoxazol-5-yl]-1H-pyrrolo[2,3-b]pyridin-5-yl}-cyclopropyl)-(4-methyl-piperazin-1-yl)-methanone] gave a Ki of 200 to 1000 nM.

Values taken from US7446199B2, “Compositions useful as inhibitors of protein kinases” (Vertex Pharmaceuticals Incorporated, priority 2003, dated 2008).
